Results on nine molecules are retold here after patent US20260159512A1, “BCAT2 INHIBITORS” (AGIOS PHARMACEUTICALS, INC., priority 2021, published 2026).

Where “and” joins values, the source holds several entries; their conditions need not be identical. Identical values can stand only once.

For orientation: IC50 means the midpoint of a concentration-inhibition curve.

Common to all, as to settings: average where tested multiple times
In one assay the target is T1, hBCAT1 (Homo sapiens, UniProt P54687).
T1 sequence (P54687 1-386): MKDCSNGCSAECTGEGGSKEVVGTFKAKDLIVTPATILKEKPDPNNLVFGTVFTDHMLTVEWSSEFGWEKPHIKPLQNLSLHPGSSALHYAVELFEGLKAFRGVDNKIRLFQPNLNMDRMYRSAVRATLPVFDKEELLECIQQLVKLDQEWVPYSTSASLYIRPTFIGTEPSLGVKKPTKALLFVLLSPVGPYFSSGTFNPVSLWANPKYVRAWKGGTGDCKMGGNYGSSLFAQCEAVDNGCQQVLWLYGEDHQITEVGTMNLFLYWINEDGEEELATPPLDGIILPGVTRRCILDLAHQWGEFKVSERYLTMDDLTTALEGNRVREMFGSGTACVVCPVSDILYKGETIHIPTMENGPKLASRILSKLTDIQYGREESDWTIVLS
The assay can be described thus: BCAT1 in vitro enzyme inhibition assay (resazurin/diaphorase-coupled fluorescence). It is filed as biochemical. The method, boiled down: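 Ten-point, 3-fold compound series (top final 100 μM, delivered 1:50 from 50× DMSO stocks) tested against hBCAT1. Inhibition detected via diaphorase-coupled resazurin fluorescence, duplicate wells, with values from repeated runs averaged.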
A general note: Alamar Blue is a resazurin reagent that responds to reducing activity.

Assay [1] addresses T2, BCAT2 (Homo sapiens, UniProt O15382).
T2 sequence (O15382 28-392): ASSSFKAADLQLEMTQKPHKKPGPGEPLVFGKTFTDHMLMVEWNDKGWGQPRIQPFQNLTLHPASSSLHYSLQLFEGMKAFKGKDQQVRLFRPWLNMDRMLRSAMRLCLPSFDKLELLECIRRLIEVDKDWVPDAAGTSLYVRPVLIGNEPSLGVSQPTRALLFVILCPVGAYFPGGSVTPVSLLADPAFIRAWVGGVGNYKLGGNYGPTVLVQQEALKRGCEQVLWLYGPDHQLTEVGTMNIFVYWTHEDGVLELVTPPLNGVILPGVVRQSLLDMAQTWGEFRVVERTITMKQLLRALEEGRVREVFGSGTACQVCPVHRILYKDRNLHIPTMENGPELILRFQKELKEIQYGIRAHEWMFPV
The assay can be described thus: BCAT2 in vitro cell inhibition using engineered A549 cells (KMV cell assay, 13C6-KMV by LC-MS/MS). It is filed as cell-based. Also on record: The result was an engineered A549 cell line that expressed endogenous BCAT2; endogenous in cells; host or cells: A549 cells with MUT and BCAT1 knocked out by CRISPR/CAS9; key to BCAT2 Cell Inhibition: A: less than or equal to 0.100 μM; B: greater than 0.100 and less than or equal to 0.500 μM; C: greater than 0.500 and less than or equal to 1.000 μM; d: greater than 1.000 μM; E: no fit.

The target of assay [2] is T2, BCAT2. Kind of assay: BCAT2 in vitro enzyme inhibition assay (resazurin/diaphorase-coupled fluorescence). It counts as biochemical. The method, boiled down:
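Coupled fluorescence readout: glutamate formed from L-leucine/α-ketoglutarate transamination drives GDH/NAD/diaphorase reduction of resazurin (Ex 540/Em 590). Human BCAT2 was first exposed 1 h at room temperature to compound, top final 100 μM in 3-fold, 10-point series; substrate reaction ran 1 h before SDS quench, in technical duplicate with DMSO max and enzyme-free min controls.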

For `CC(C)Cc1nc2cnc(-c3nc(CO)cs3)cc2n1[C@@H]1CCC[C@H](NC(=O)c2ncc(Cl)s2)C1` [Example 330, 5-chloro-N-((1S,3R)-3-(6-(4-(hydroxymethyl)thiazol-2-yl)-2-isobutyl-1H-imidazo[4,5-c]pyridin-1-yl)cyclohexyl)thiazole-2-carboxamide], the IC50 against hBCAT1 is below 500 nM; at BCAT2 [1], at most 100 nM; on BCAT2 [2] it was at most 100 nM.

With `O=C(N[C@H]1CCC[C@@H](n2c(C3COCCO3)nc3cnc(-c4nc[nH]n4)cc32)C1)c1ncc(Cl)s1` (single isomer, unassigned) [Example 176], the IC50 against hBCAT1 is 1000 to 5000 nM; on BCAT2 [1] it was above 1000 nM; against BCAT2 [2] it was 100 to 500 nM.

For `Cc1noc(C)c1-c1nc2cnc(-n3ccnn3)cc2n1[C@@H]1CCC[C@H](NC(=O)c2ncc(C(F)F)s2)C1` [Example 48, 5-(difluoromethyl)-N-((1S,3R)-3-(2-(3,5-dimethylisoxazol-4-yl)-6-(1H-1,2,3-triazol-1-yl)-1H-imidazo[4,5-c]pyridin-1-yl)cyclohexyl)thiazole-2-carboxamide], the half-inhibitory concentration (IC50) against hBCAT1 is above 5000 nM; at BCAT2 [2], above 1000 nM. On BCAT2 [1], the “BCAT2 Cell Inhibition” value is reported as “E”.

With `N#Cc1cccc(-c2nc3cnc(-c4nc[nH]n4)cc3n2[C@@H]2CCC[C@H](NC(=O)c3ccc(Cl)s3)C2)c1F` [Example 365, 5-chloro-N-((1S,3R)-3-(2-(3-cyano-2-fluorophenyl)-6-(1H-1,2,4-triazol-3-yl)-1H-imidazo[4,5-c]pyridin-1-yl)cyclohexyl)thiophene-2-carboxamide], the IC50 is 1000 to 5000 nM against hBCAT1, above 1000 nM on BCAT2 [1] and at most 100 nM on BCAT2 [2].

Consider `CC(=O)N1CC(NC(=O)c2ncc(C(F)F)s2)CC(n2c(-c3ncccc3F)nc3cnc(-n4ccnn4)cc32)C1` (stereo not drawn) [Example 120, N-(1-acetyl-5-(2-(3-fluoropyridin-2-yl)-6-(1H-1,2,3-triazol-1-yl)-1H-imidazo[4,5-c]pyridin-1-yl)piperidin-3-yl)-5-(difluoromethyl)thiazole-2-carboxamide], for which the IC50 was 1000 to 5000 nM and > 5000 nM at hBCAT1; above 1000 nM against BCAT2 [1]; at most 100 nM against BCAT2 [2].

For the molecule `CC(=O)N1CC(NC(=O)c2ccc(Br)s2)CC(n2c(-c3ncccc3F)nc3cc(-c4nnco4)ccc32)C1` (stereo not drawn) [Example 283, N-(1-acetyl-5-(2-(3-fluoropyridin-2-yl)-5-(1,3,4-oxadiazol-2-yl)-1H-benzo[d]imidazol-1-yl)piperidin-3-yl)-5-bromothiophene-2-carboxamide], the IC50 against hBCAT1 is > 5000 nM and 1000 to 5000 nM; at BCAT2 [1], above 1000 nM; at BCAT2 [2], at most 100 nM.

On to `CC(C)(C)Cc1nc2cnc(-n3nccn3)cc2n1[C@@H]1CCC[C@H](NC(=O)c2ccc(Cl)s2)[C@H]1O` [Example 387, 5-chloro-N-((1S,2R,3R)-2-hydroxy-3-(2-neopentyl-6-(2H-1,2,3-triazol-2-yl)-1H-imidazo[4,5-c]pyridin-1-yl)cyclohexyl)thiophene-2-carboxamide], for which the figures for the half-maximal inhibitory concentration (IC50) at hBCAT1, on BCAT2 [1] and on BCAT2 [2] were below 500 nM, at most 100 nM and at most 100 nM, respectively.

`CC(C)(C)Cc1nc2cnc(-c3nc[nH]n3)cc2n1[C@@H]1CCC[C@H](NC(=O)c2ncc(Cl)s2)C1` [Example 162, 5-chloro-N-((1S,3R)-3-(2-neopentyl-6-(1H-1,2,4-triazol-3-yl)-1H-imidazo[4,5-c]pyridin-1-yl)cyclohexyl)thiazole-2-carboxamide]: the figures for the IC50 against hBCAT1, against BCAT2 [1] and against BCAT2 [2] were below 500 nM, at most 100 nM and at most 100 nM, respectively.

In the case of `O=C(N[C@H]1C[C@H](O)C[C@@H](n2c(-c3ccccc3F)nc3cnc(-n4nccn4)cc32)C1)c1ncc(Cl)s1` (single isomer, unassigned) [Example 110], the IC50 at hBCAT1 is below 500 nM; against BCAT2 [1], at most 100 nM; against BCAT2 [2], at most 100 nM.
